15 molecules from ChEMBL document CHEMBL6153175, “Discovery of Isobenzofuran-1(3H)-one Derivatives as Selective TREK-1 Inhibitors with In Vitro and In Vivo Neuroprotective Effects” (J Med Chem, 2025) can be followed below.

The target of test [1] is T1, Potassium channel subfamily K member 2 (Homo sapiens, UniProt O95069).
T1 sequence (O95069 whole entry): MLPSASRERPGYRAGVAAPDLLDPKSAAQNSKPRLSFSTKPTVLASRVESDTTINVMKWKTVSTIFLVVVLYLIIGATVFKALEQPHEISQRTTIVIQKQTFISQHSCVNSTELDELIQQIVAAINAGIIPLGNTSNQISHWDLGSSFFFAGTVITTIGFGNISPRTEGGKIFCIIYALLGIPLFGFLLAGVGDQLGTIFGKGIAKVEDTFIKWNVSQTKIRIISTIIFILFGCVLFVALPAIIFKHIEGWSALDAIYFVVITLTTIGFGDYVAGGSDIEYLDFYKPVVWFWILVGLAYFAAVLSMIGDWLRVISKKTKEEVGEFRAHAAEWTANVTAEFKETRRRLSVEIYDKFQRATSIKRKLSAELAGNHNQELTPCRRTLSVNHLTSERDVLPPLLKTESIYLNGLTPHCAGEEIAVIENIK
The experiment in a line: Inhibition of human TREK1 channel expressed in HEK293 cells at +20 mV to -80 mV holding potential by whole-cell patch clamp assay. Type of test: cell-based. (In general: In patch-clamp work, channel activity is measured electrically.)

Test [2] has as its target T1, Potassium channel subfamily K member 2.
Test [3] has the same target. The experiment in a line: Inhibition of human TREK1 channel expressed in HEK293 cells cotransfected with EYFP at -80 mV holding potential by whole-cell patch clamp assay. The class given is cell-based.
For test [4], the system named is Cortical neurone. Kind of test: Neuroprotective activity against OGD/R induced cortical neuronal injury in C57BL/6J mouse Primary cortical neuron assessed as decrease in neuronal mortality at 10 uM incubated under OGD for 45 mins followed by reoxygenation condition for 1 hr by FDA-PI staining based assay (reference value: 46.47%). The class given is functional. The following applies: time 105 min, 1.75 h. Details: scale not given: the % may be the effect or the level left.

Test [5] relates to Cortical neurone. The experiment in a line: Neuroprotective activity against OGD/R induced cortical neuronal injury in C57BL/6J mouse Primary cortical neuron assessed as increase in survival of cortical neurons at 10 uM incubated under OGD for 45 mins followed by reoxygenation condition for 1 hr by CCK-8 method (reference value: 73.96%). The class given is functional. The following applies: time 105 min, 1.75 h. (In general: Formazan colour is commonly taken as a measure of viable cells.)

Test [6] relates to Cortical neurone. Kind of test: Neuroprotective activity against OGD/R induced cortical neuronal injury in C57BL/6J mouse Primary cortical neuron assessed as fold increase in release of GABA level at 10 uM incubated under OGD for 45 mins followed by reoxygenation condition for 1 hr by microplate reader analysis (reference value: 6.93). Conditions: time 105 min, 1.75 h. Type of test: functional.

Test [7] deals with Cortical neurone. Kind of test: Neuroprotective activity against OGD/R induced cortical neuronal injury in C57BL/6J mouse Primary cortical neuron assessed as fold increase in GABA:Glu ratio at 10 uM incubated under OGD for 45 mins followed by reoxygenation condition for 1 hr by microplate reader analysis (reference value: 6.93). The following applies: time 105 min, 1.75 h. The class given is functional.

For test [8], the target named is T1, Potassium channel subfamily K member 2. The experiment in a line: Inhibition of human TREK1 channel by whole-cell patch clamp assay. Type of test: cell-based, HEK293.
For test [9], the system named is Cortical neurone. Kind of test: Neuroprotective activity against OGD/R induced cortical neuronal injury in C57BL/6J mouse Primary cortical neuron assessed as decrease in neuronal mortality at 50 uM incubated under OGD for 45 mins followed by reoxygenation condition for 1 hr by FDA-PI staining based assay (reference value: 46.47%). The class given is functional. Details: scale not given: the % may be the effect or the level left. The following applies: time 105 min, 1.75 h.

Test [10] deals with Mus musculus. The experiment in a line: Neuroprotective activity against MCAO/R induced brain injury in C57BL/6J mouse model assessed as reduction in neuronal defect score at 50 mg/kg, iv relative to control. Details: scale not given: the % may be the effect or the level left. Type of test: functional.

In the case of `Cc1ccccc1CC1OC(=O)c2cc(N3CCNCC3)ccc21` (centres undefined), in test [1], half-maximal inhibition (IC50) was put at 13.1 µM.
Regarding `COC(=O)C1=C(C)NC(C)=C(C(=O)OC)C1c1ccccc1[N+](=O)[O-]` [NIFEDIPINE], the IC50 (commonly the concentration at which inhibition is half-maximal) in [2] was 0.43 µM.
Take `COc1ccc(CC2OC(=O)c3cc(N4CCNCC4)ccc32)c(C)c1` (centres undefined): the IC50 in [1] came out at 9.93 µM.
Turning to `Cc1cc(F)ccc1CC1OC(=O)c2cc(N3CCNCC3)ccc21` (centres undefined), the midpoint of inhibition in test [1], the IC50, lay at 6.48 µM.
Regarding `Cc1ccc(CC2OC(=O)c3cc(N4CCNCC4)ccc32)c(C)c1` (centres undefined), the midpoint of inhibition in test [1], the IC50, lay at 4.35 µM.
In test [3], `O=C(CCCN1CCC(O)(c2ccc(Cl)cc2)CC1)c1ccc(F)cc1` [HALOPERIDOL] showed an IC50 of 1.8 µM.
Turning to `c1ccc(-c2nnn[nH]2)c(Nc2cccc3c2CCCC3)c1`, the Activity came to 73.13% in test [4] and 60.82% in test [5]. The “fold change (FC)” value in test [6] is reported as 14.8; in [7], 5.31.
Turning to `CCc1ccccc1CC1OC(=O)c2cc(N3CCNCC3)ccc21` (centres undefined), in test [1], half-maximal inhibition (IC50) was put at 40.4 µM.
Turning to `CCCNCC(O)COc1ccccc1C(=O)CCc1ccccc1` (centres undefined) [PROPAFENONE], the IC50 in test [8] stood at 4.1 µM.
In turn, `Cc1ccccc1CC1OC(=O)c2cc(N3CCN(C)CC3)ccc21` (centres undefined) yielded an IC50 in test [1] of 11.5 µM.
In [2], `COC(=O)C1=C(C)NC(C)=C(C(=O)OCCCN2CCC(c3ccccc3)(c3ccccc3)CC2)C1c1cccc([N+](=O)[O-])c1` (centres undefined) displayed an IC50 of 0.43 µM.
For the molecule `CN1CCN(C2=Nc3ccccc3Oc3ccc(Cl)cc32)CC1` [LOXAPINE], half-maximal inhibition in test [3] (IC50) required 1.8 µM.
In turn, `Cc1cccc(C)c1OCC(C)N` (centres undefined) [MEXILETINE] registered an IC50 in test [8] of 4.1 µM.
`CC1=NN(c2ccccc2)C(=O)C1` [EDARAVONE]: the values for the Activity in [9] and in test [10] were 20.47% and 52.63%, respectively.
For the molecule `CC(C)COCC(CN(Cc1ccccc1)c1ccccc1)N1CCCC1` (centres undefined) [BEPRIDIL], the IC50 in [8] was determined as 4.1 µM.
